For series [1], the system named is Salmonella Typhimurium TA1535. Here is the method: (§1) Before the test, Salmonella Typhimurium (S. Typhimurium) TA97a, TA98, TA100, TA102, TA1535 and Escherichia coli WP2uvrA pKM101 (pKM101) were first checked for their genetic integrity, including biotin dependence, rfa marker (crystal violet), biotin, histidine dependence and presence of the plasmid pKM101 (ampicillin resistance) or pAQ1 (tetracycline resistance). […] The maximum concentration of EDT was also screened using a preliminary experiment.
(§2) DMSO (0.1 mL) was directly incorporated into 1.9 mL melted top agar as the vehicle control. […] Each strain (0.1 mL, 6–7 log10 CFU/mL) was added into 2 mL of top agar in which comprised 0.5 mL S9 (10%), serial concentrations of EDT (2000, 400, 80, 16 and 3.2 μg/plate), DMSO or control chemicals for testing with the S9. For testing without S9, 0.5 mL phosphate buffer saline (PBS, pH 7.4) replaced the S9 mix. Then, the obtained top agar was melted, poured onto the surface of […] and swirled to distribute the top agar to all surfaces of medium, followed by incubation at 37 °C for 48 h. The resultant colonies were counted manually as the number of revertant colonies per plate. The experiments were performed in triplicate and the results were expressed as the average ± SD.

Series [2] deals with Salmonella Typhimurium TA97a. Description: Ames test, TA97a. The settings on record: positive control 50 μg/plate, −S9. As for the experimental part: as §1, §2
For orientation: The Ames test detects mutagens through reverse mutation in bacteria.

Series [3] has as its system Salmonella Typhimurium TA102. The experiment in a line: Ames test, TA102. As to conditions: TA102, positive control 50 μg/plate, −S9. As for the experimental part: as §1, §2
Series [4] concerns Salmonella Typhimurium TA98. Description: Ames test, TA98. The settings on record: TA98, positive control 50 μg/plate, −S9. As for the experimental part:
as §1, §2

Series [5] concerns Salmonella Typhimurium TA100. Description: Ames test, TA100. The format is cell-based. As to conditions: TA100, positive control 1μL/plate, −S9. Here is the method:
as §1, §2

Series [6] has as its system Escherichia coli WP2uvrA pKM101. Description: Ames test, pKM101. As for the experimental part: as §1, §2

Read-outs that look alike come from different tables or passages of the source. Marks after values point to notes of the source that are not given here.

On to `[N-]=[N+]=[N-].[Na+]` [sodium azide, reference compound], for which the “number of revertant colonies per plate” value in series [1] (TA1535, positive control 1.5 μg/plate, −S9) is given as 534.33 ± 38.67^e.
As for `CN(C)c1ccc(N=NS(=O)(=O)[O-])cc1.[Na+]` [diaxone, reference compound], the “number of revertant colonies per plate” value is on record as 2472.00 ± 94.00^b in series [2], 522.00 ± 45.00^b in series [3] and 972.00 ± 37.00^b in series [4].
For the molecule methyl sulfonate [reference compound], the entries for the “number of revertant colonies per plate” value in series [5] and in series [6] were 1017.33 ± 39.67^c and 644.00 ± 38.00^c, respectively.
Turning to `Nc1ccc2cc3ccccc3cc2c1` [2-aminoanthracene, reference compound], the “number of revertant colonies per plate” value in series [1] (TA1535, positive control 10 μg/plate, +S9) was 740.00 ± 44.00^d.

The values above are taken from paper PMC10502144, “Anti-methicillin-resistant Staphylococcus aureus activity and safety evaluation of 14-O-[(5-ethoxycarbonyl-4,6-dimethylpyrimidine-2-yl) thioacetyl] mutilin (EDT)” (Scientific Reports, 2023).
